# Source: patent US20240142467A1, “Use of Biomarkers in the Treatment of Fibrotic Conditions with a PDE4B-inhibitor” (Boehringer Ingelheim International GmbH, priority 2022, published 2024)
# System: patients with idiopathic pulmonary fibrosis
# Assay: Phase 2 trial NCT04419506: biomarker analysis in blood plasma or serum (ELISA, Luminex; MMRM)
# Assay type: in vivo, human
# Procedure: Blood samples were collected from patients during the clinical phase 2 trial at baseline, at 2, 4, 8 and 12 weeks (after baseline) of the “Compound of formula A′ treatment arm” and of the “Placebo arm”, and blood plasma and/or blood serum was prepared according to methods known in the art.
# Fibrosis-related biomarkers were assessed in plasma or serum using ELISA or Luminex technologies. The changes in these fibrosis-related biomarkers at weeks 2, 4, 8 and 12 after baseline were analysed using mixed models with repeated measures (MMRM). The fold changes in the tested biomarkers over baseline over time were then compared between patients of the of the “Compound of formula A′ treatment arm” and patients of the “Placebo arm”.
# Biomarker values were only considered valid up to +2 days for CRP and up to +7 days after last drug intake for all other proteins.
# At MLM (MLM Medical Labs GmbH, Mönchengladbach, Germany, www.mlm-labs.com) the biomarker KL-6 (Krebs von den Lungen) was measured using CLEIA Test kits (Lumipulse® G KL-6 Immunoreaction Cartridges) from Fujirebio (www.fujirebio.com) and a Lumipulse G1200 system, the biomarker sICAM-1 was measured using an ECLIA assay (V-PLEX Plus Vascular Injury Panel 2 Human Kit) from Meso Scale Discovery (MSD) on the Meso QuickPlex SQ120 device, and the biomarker MMP-7 was measured using a Quantikine® ELISA assay (Human MMP-7/PARC Quantikine® ELISA kit) from R&D Systems on a TECAN Absorbance Reader, according to manufacturer's instructions.
# The biomarkers CA-125, CA19-9, COMP, CRP, E-selectin, sICAM-1, MMP-3, MMP-7, Prostasin, TIMP-1, and vWF were measured using validated microsphere-based immune-multiplexing assays using Luminex technology at MyriadRBM (Rules Based Medicine, a q2 solutions company, Austin, Texas, USA, www.rbm.q2labsolutions.com).
# The biomarker data as collected from the different treatment groups of the phase II trial have been analysed with regard to three different aspects: • 1. The biomarker data has been analysed with regard to the “pharmacodynamic potential” of each respective biomarker, that means the change from baseline (CfB) of the biomarker level over time during treatment with the compound of formula A′ has been analysed. […] The biomarker data has been analysed with regard to the “prognostic potential” of each respective biomarker, that means the level of biomarker at baseline vs. clinical outcome after 12 weeks (=the absolute FVC [mL] change from baseline at week 12 and the absolute change from baseline in Dlco % predicted at week 12) in the Placebo groups has been analysed which is disease-related and may be used to assess the progression of the disease (e.g. fast vs. slow progressors). • 3. The biomarker data has been analysed with regard to their “outcome-related potential” of each respective biomarker, that means the change from baseline (CfB) in biomarker level vs. the clinical outcomes after 12 weeks (=the absolute FVC [mL] change from baseline at week 12 and the absolute change from baseline in Dlco % predicted at week 12) in the compound of formula A′ treatment groups has been analysed. Hereby, a potential early prediction of both clinical endpoint and treatment effect may be achieved.
# [1] = AF-background, listed as Comp. A′
# [2] = Non-AF-background, listed as Comp. A′
structure (smiles),measurement,setting,value
[O-][S@+]1CCc2nc(N3CCC(c4ncc(Cl)cn4)CC3)nc(NC3(CO)CCC3)c21 [Compound of formula A′],CRP: change of biomarker from baseline to Week 12 in Comp. A′ arm vs. Placebo arm,AF-background,increased
same,E-selectin: change of biomarker from baseline to Week 12 in Comp. A′ arm vs. Placebo arm,AF-background,decreased
same,KL-6: change of biomarker from baseline to Week 12 in Comp. A′ arm vs. Placebo arm,AF-background,decreased
same,"Matrilysin (MMP7, MLM): change of biomarker from baseline to Week 12 in Comp. A′ arm vs. Placebo arm",AF-background,decreased
same,Prostasin: change of biomarker from baseline to Week 12 in Comp. A′ arm vs. Placebo arm,AF-background,↓
same,SP-D: change of biomarker from baseline to Week 12 in Comp. A′ arm vs. Placebo arm,AF-background,decreased
same,"CA19.9 (U/mL): fold change from baseline to Week 4, adjusted mean","AF-background, blood, MMRM",0.987
same,"CA19.9 (U/mL): fold change from baseline to Week 12, adjusted mean","AF-background, blood, MMRM",0.914
same,"CA-125 (MUC-16) (U/mL): fold change from baseline to Week 4, adjusted mean","AF-background, blood, MMRM",1.030
same,"CA-125 (MUC-16) (U/mL): fold change from baseline to Week 12, adjusted mean","AF-background, blood, MMRM",1.067
same,"COMP (μg/L): fold change from baseline to Week 4, adjusted mean","AF-background, blood, MMRM",0.991
same,"COMP (μg/L): fold change from baseline to Week 12, adjusted mean","AF-background, blood, MMRM",1.023
same,"CRP (mg/L): fold change from baseline to Week 4, adjusted mean","AF-background, blood, MMRM",1.780
same,"CRP (mg/L): fold change from baseline to Week 12, adjusted mean","AF-background, blood, MMRM",1.545
same,"E-selectin (μg/L): fold change from baseline to Week 4, adjusted mean","AF-background, blood, MMRM",0.933
same,"E-selectin (μg/L): fold change from baseline to Week 12, adjusted mean","AF-background, blood, MMRM",0.936
same,"KL-6 (U/mL): fold change from baseline to Week 4, adjusted mean","AF-background, blood, MMRM",0.960
same,"KL-6 (U/mL): fold change from baseline to Week 12, adjusted mean","AF-background, blood, MMRM",0.923
same,"Matrilysin (μg/L) (MMP7, MLM): fold change from baseline to Week 4, adjusted mean","AF-background, blood, MMRM",0.941
same,"Matrilysin (μg/L) (MMP7, MLM): fold change from baseline to Week 12, adjusted mean","AF-background, blood, MMRM",0.981
same,"Prostasin (μg/L): fold change from baseline to Week 4, adjusted mean","AF-background, blood, MMRM",0.939
same,"Prostasin (μg/L): fold change from baseline to Week 12, adjusted mean","AF-background, blood, MMRM",0.933
same,"SP-D (μg/L): fold change from baseline to Week 4, adjusted mean","AF-background, blood, MMRM",0.879
same,"SP-D (μg/L): fold change from baseline to Week 12, adjusted mean","AF-background, blood, MMRM",0.894
same,"Stromelysin-1 MMP3) (μg/L): fold change from baseline to Week 4, adjusted mean","AF-background, blood, MMRM",1.063
same,"Stromelysin-1 MMP3) (μg/L): fold change from baseline to Week 12, adjusted mean","AF-background, blood, MMRM",1.056
same,"sICAM1 (RBM) (μg/L): fold change from baseline to Week 4, adjusted mean","AF-background, blood, MMRM",1.049
same,"sICAM1 (RBM) (μg/L): fold change from baseline to Week 12, adjusted mean","AF-background, blood, MMRM",1.069
same,"vWF (mg/L): fold change from baseline to Week 4, adjusted mean","AF-background, blood, MMRM",1.035
same,"vWF (mg/L): fold change from baseline to Week 12, adjusted mean","AF-background, blood, MMRM",0.964
same,CRP: change of biomarker from baseline to Week 12 in Comp. A′ arm vs. Placebo arm,[1],↑ (significant increase)
same,E-selectin: change of biomarker from baseline to Week 12 in Comp. A′ arm vs. Placebo arm,[1],↓
same,KL-6: change of biomarker from baseline to Week 12 in Comp. A′ arm vs. Placebo arm,[1],↓ (significant decrease)
same,"Matrilysin (MMP7, MLM): change of biomarker from baseline to Week 12 in Comp. A′ arm vs. Placebo arm",[1],↓
same,SP-D: change of biomarker from baseline to Week 12 in Comp. A′ arm vs. Placebo arm,[1],↓ (significant decrease)
same,CA19-9: change of biomarker from baseline to Week 12 in Comp. A′ arm vs. Placebo arm,Non-AF-background,↓
same,CA-125 (MUC-16): change of biomarker from baseline to Week 12 in Comp. A′ arm vs. Placebo arm,Non-AF-background,decreased
same,COMP: change of biomarker from baseline to Week 12 in Comp. A′ arm vs. Placebo arm,Non-AF-background,decreased
same,CRP: change of biomarker from baseline to Week 12 in Comp. A′ arm vs. Placebo arm,Non-AF-background,increased
same,E-selectin: change of biomarker from baseline to Week 12 in Comp. A′ arm vs. Placebo arm,Non-AF-background,decreased
same,KL-6: change of biomarker from baseline to Week 12 in Comp. A′ arm vs. Placebo arm,Non-AF-background,decreased
same,"Matrilysin (MMP7, MLM): change of biomarker from baseline to Week 12 in Comp. A′ arm vs. Placebo arm",Non-AF-background,decreased
same,Prostasin: change of biomarker from baseline to Week 12 in Comp. A′ arm vs. Placebo arm,Non-AF-background,decreased
same,SP-D: change of biomarker from baseline to Week 12 in Comp. A′ arm vs. Placebo arm,Non-AF-background,decreased
same,Stromelysin-1 (MMP3): change of biomarker from baseline to Week 12 in Comp. A′ arm vs. Placebo arm,Non-AF-background,↓
same,sICAM1 (RBM): change of biomarker from baseline to Week 12 in Comp. A′ arm vs. Placebo arm,Non-AF-background,basically the same
same,vWF: change of biomarker from baseline to Week 12 in Comp. A′ arm vs. Placebo arm,Non-AF-background,decreased
same,"CA19-9 (U/mL): fold change from baseline to Week 4, adjusted mean","Non-AF-background, blood, MMRM",0.901
same,"CA19-9 (U/mL): fold change from baseline to Week 12, adjusted mean","Non-AF-background, blood, MMRM",1.016
same,"CA-125 (MUC-16) (U/mL): fold change from baseline to Week 4, adjusted mean","Non-AF-background, blood, MMRM",0.956
same,"CA-125 (MUC-16) (U/mL): fold change from baseline to Week 12, adjusted mean","Non-AF-background, blood, MMRM",1.039
same,"COMP (μg/L): fold change from baseline to Week 4, adjusted mean","Non-AF-background, blood, MMRM",0.970
same,"COMP (μg/L): fold change from baseline to Week 12, adjusted mean","Non-AF-background, blood, MMRM",0.949
same,"CRP (mg/L): fold change from baseline to Week 4, adjusted mean","Non-AF-background, blood, MMRM",2.134
same,"CRP (mg/L): fold change from baseline to Week 12, adjusted mean","Non-AF-background, blood, MMRM",1.479
same,"E-selectin (μg/L): fold change from baseline to Week 4, adjusted mean","Non-AF-background, blood, MMRM",0.943
same,"E-selectin (μg/L): fold change from baseline to Week 12, adjusted mean","Non-AF-background, blood, MMRM",0.982
same,"KL-6 (U/mL): fold change from baseline to Week 4, adjusted mean","Non-AF-background, blood, MMRM",0.911
same,"KL-6 (U/mL): fold change from baseline to Week 12, adjusted mean","Non-AF-background, blood, MMRM",0.916
same,"Matrilysin (μg/L) (MMP7, MLM): fold change from baseline to Week 4, adjusted mean","Non-AF-background, blood, MMRM",0.908
same,"Matrilysin (μg/L) (MMP7, MLM): fold change from baseline to Week 12, adjusted mean","Non-AF-background, blood, MMRM",0.883
same,"Prostasin (μg/L): fold change from baseline to Week 4, adjusted mean","Non-AF-background, blood, MMRM",0.883
same,"Prostasin (μg/L): fold change from baseline to Week 12, adjusted mean","Non-AF-background, blood, MMRM",0.905
same,"SP-D (μg/L): fold change from baseline to Week 4, adjusted mean","Non-AF-background, blood, MMRM",0.833
same,"SP-D (μg/L): fold change from baseline to Week 12, adjusted mean","Non-AF-background, blood, MMRM",0.875
same,"Stromelysin-1 MMP3) (μg/L): fold change from baseline to Week 4, adjusted mean","Non-AF-background, blood, MMRM",0.963
same,"Stromelysin-1 MMP3) (μg/L): fold change from baseline to Week 12, adjusted mean","Non-AF-background, blood, MMRM",0.960
same,"sICAM1 (RBM) (μg/L): fold change from baseline to Week 4, adjusted mean","Non-AF-background, blood, MMRM",0.956
same,"sICAM1 (RBM) (μg/L): fold change from baseline to Week 12, adjusted mean","Non-AF-background, blood, MMRM",0.937
same,"vWF (μg/L) (mg/L): fold change from baseline to Week 4, adjusted mean","Non-AF-background, blood, MMRM",0.991
same,"vWF (μg/L) (mg/L): fold change from baseline to Week 12, adjusted mean","Non-AF-background, blood, MMRM",0.972
same,CA-125 (MUC-16): change of biomarker from baseline to Week 12 in Comp. A′ arm vs. Placebo arm,[2],↓ (minor decrease)
same,COMP: change of biomarker from baseline to Week 12 in Comp. A′ arm vs. Placebo arm,[2],↓
same,CRP: change of biomarker from baseline to Week 12 in Comp. A′ arm vs. Placebo arm,[2],↑ (significant increase)
same,E-selectin: change of biomarker from baseline to Week 12 in Comp. A′ arm vs. Placebo arm,[2],↓
same,KL-6: change of biomarker from baseline to Week 12 in Comp. A′ arm vs. Placebo arm,[2],↓ (significant decrease)
same,"Matrilysin (MMP7, MLM): change of biomarker from baseline to Week 12 in Comp. A′ arm vs. Placebo arm",[2],↓ (significant decrease)
same,Prostasin: change of biomarker from baseline to Week 12 in Comp. A′ arm vs. Placebo arm,[2],↓
same,SP-D: change of biomarker from baseline to Week 12 in Comp. A′ arm vs. Placebo arm,[2],↓ (significant decrease)
same,vWF: change of biomarker from baseline to Week 12 in Comp. A′ arm vs. Placebo arm,[2],↓
same,elevation of the CRP-levels,treatment groups regardless of background therapy,approximately 2 ×
